# Article PMC12640959, “Elucidation of anti-SARS-CoV-2 and anti-inflammatory bioactives in Qingyan Dropping Pills via integrated in silico screening and bioactivity validation” (Frontiers in Medicine, 2025)
# Like-named read-outs stand apart in the source and are kept apart here.
# Legend:
# SARS-CoV-2 = system: SARS-CoV-2; design: method as in PMID 37245876; conditions: Vero E6 monolayers, noncytotoxic concentrations; cited from earlier work
# [1] = MTT cell viability assay in RAW 264.7 cells; assay type: cell-based; conditions: mouse
# Protocol: (§1) RAW 264.7 cells were cultured in DMEM with 10% fetal bovine serum, 100 μg/mL streptomycin, and 100 U/mL penicillin at 37 °C and supplemented with 5% CO2 and 95% air. After seeded and cultured in a 96-well plate (2 × 10^5 cells/well, 100 μL medium/well) for overnight, RAW 264.7 were treated with the tested compounds for 24 h, respectively. Then, 50 μL MTT (2.5 mg/mL) was added into each well and incubated at 37 °C for 4 h. Finally, the absorbance was recorded at 490 nm by a microplate reader to assess the cell viability.
# TNF-α = TNF-α level (ELISA) in LPS-induced RAW 264.7 cells; assay type: cell-based; conditions: RAW 264.7, LPS 1 μg/mL, 24 h, vs model group
# Text: (§2) NO is an essential pro-inflammatory factor, which can be not only highly expressed in cells but also promoted the expression of other inflammatory cytokines. TNF-α, IL-6, and IL-1β were considered as the main inflammatory cytokines, which were screened as the key targets in network pharmacology. So, the cytokines, including NO, TNF-α, IL-6, and IL-1β, were selected as indicators to evaluate the anti-inflammatory effects. After cultured in a 96-well plate overnight for 1 × 10^5 cells/well, RAW 264.7 cells were simultaneously treated with the tested compounds (concentration from 5 μM to 100 μM) and lipopolysaccharide (LPS) (concentration with 1 μg/mL) for 24 h. Then, the supernatant was collected to measure the cytokines levels with the corresponding assay kits, respectively.
# SARS-CoV-2 M^pro = SARS-CoV-2 M^pro (Severe acute respiratory syndrome coronavirus 2, UniProt P0DTD1); experiment: FRET enzymatic inhibition assay on M^pro; assay type: biochemical
# NO = NO level in LPS-induced RAW 264.7 cells; assay type: cell-based; conditions: RAW 264.7, LPS 1 μg/mL, 24 h, vs model group, dose-dependent
# Text: as §2
# IL-6 = IL-6 level (ELISA) in LPS-induced RAW 264.7 cells; assay type: cell-based; conditions: RAW 264.7, LPS 1 μg/mL, 24 h, vs model group
# Text: as §2
# SARS-CoV-2 PL^pro = SARS-CoV-2 PL^pro (Severe acute respiratory syndrome coronavirus 2, UniProt P0DTD1); experiment: FRET enzymatic inhibition assay on PL^pro; assay type: biochemical; conditions: for inhibition on PL^pro at 40 μM: 40 μM compound
# RdRp = system: RdRp; design: method as in PMID 33614402; conditions: cell-free and cell-based assays; cited from earlier work
# [2] = biological target: SARS-CoV-2 papain-like protease (PL^pro) (Severe acute respiratory syndrome coronavirus 2, UniProt P0DTD1); experiment: SPR assay (Biacore T200), immobilized PL^pro; assay type: binding
# in vitro = conditions: African green monkey
# IL-1β = IL-1β level (ELISA) in LPS-induced RAW 264.7 cells; assay type: cell-based; conditions: RAW 264.7, LPS 1 μg/mL, 24 h, vs model group
# Text: as §2
# [3] = biological target: T1, SARS-CoV-2 spike protein (S^pro) (Severe acute respiratory syndrome coronavirus 2, UniProt P0DTC2); experiment: SPR assay (Biacore T200), immobilized S^pro; assay type: binding; conditions: CM5 chip, 25 °C, pH 7.4, 5% DMSO, read-out: equilibrium dissociation constant (KD), S^pro
# T1 construct: purchased Sino Biological Inc. (Beijing, China)
# SARS-CoV-2 Omicron BA.5 = experiment: cytopathic effects (CPE) inhibition assay in Vero E6 cells; assay type: cell-based
# RAW 264.7 cells = experiment: MTT cell viability assay in RAW 264.7 cells; assay type: cell-based
# Protocol: as §1
# [4] = biological target: SARS-CoV-2 main protease (M^pro) (Severe acute respiratory syndrome coronavirus 2, UniProt P0DTD1); experiment: SPR assay (Biacore T200), immobilized M^pro; assay type: binding; conditions: CM5 chip, 25 °C, pH 7.4, 5% DMSO
# [5] = rat, in vivo, po; cited from earlier work
# S^pro RBD = biological target: S^pro RBD; design: method as in PMID 34403732; conditions: cited from earlier work
# [6] = MTT, 24 h, tested up to 100 μΜ, read-out: CC50 in RAW264.7 cells
compound,measurement,setting,value
O=C1O[C@H]2[C@@H]3OC(=O)c4cc(O)c(O)c(O)c4-c4c(O)c(O)c5oc(=O)c6c(c(O)c(O)c7oc(=O)c4c5c76)-c4c(cc(O)c(O)c4O)C(=O)OC[C@H]3OC(O)[C@@H]2OC(=O)c2cc(O)c(O)c(O)c2-c2c1cc(O)c(O)c2O (mixture of isomers) [punicalagin],virus-induced plaque formation,SARS-CoV-2,reduce
"O=C(O[C@@H]1O[C@@H]2COC(=O)c3cc(O)c(O)c(O)c3-c3c(cc(O)c(O)c3O)C(=O)O[C@H]([C@H]1O)[C@@H]2O)c1cc(O)c(O)c(O)c1 [COR, corilagin]",CC50 at 24 h,[1],> 100 µM
same,level of TNF-α,TNF-α,decrease
same,IC50,SARS-CoV-2 M^pro,0.73 ± 0.05 µM
same,production of NO,NO,inhibited
same,level of IL-6,IL-6,significantly reduce
same,IC50,SARS-CoV-2 PL^pro,> 100 µM
same,inhibition on PL^pro at 40 μM,SARS-CoV-2 PL^pro; FRET,poor inhibition
same,RdRp polymerase activity,RdRp,robustly inhibiting
same,Kd,[2],6.24 µM
same,CC50 at 48 h,in vitro,> 100 µM
same,level of IL-1β,IL-1β,significantly reduce
same,Kd,[3],0.192 µM
same,EC50,"SARS-CoV-2 Omicron BA.5; Severe acute respiratory syndrome coronavirus 2, Vero C1008, 48 h",12.8 µM
"O=C(O)c1cc(O)c(O)c(O)c1 [GAL, gallic acid]",CC50 at 24 h,[1]; [6],> 100 µM
same,level of TNF-α,TNF-α,decrease
same,production of NO,NO,inhibited
same,level of IL-6,IL-6,significantly reduce
same,level of IL-1β,IL-1β,significantly reduce
"C[C@H](CCC(=O)NCC(=O)O)[C@H]1CC[C@H]2[C@@H]3[C@H](O)C[C@@H]4C[C@H](O)CC[C@]4(C)[C@H]3C[C@H](O)[C@]12C [GLYCH, glycocholic acid]",cell viability of RAW264.7 cells,"RAW 264.7 cells; MTT, above 40 μΜ, p < 0.05",significantly decreased
same,level of TNF-α,TNF-α,decrease
same,production of NO,NO,inhibited
same,level of IL-6,IL-6,significantly reduce
same,level of IL-1β,IL-1β,significantly reduce
"O=C(OC[C@H]1OC(O)[C@@](O)(COC(=O)c2cc(O)c(O)c(O)c2)[C@@H]1O)c1cc(O)c(O)c(O)c1 (stereo partly shown) [HAM, hamamelitannin]",cell viability of RAW264.7 cells,RAW 264.7 cells,significantly decreased
same,production of NO,NO,inhibited
same,level of IL-6,IL-6,significantly reduce
same,"equilibrium dissociation constant (KD), PL^pro","[2]; SPR, CM5 chip, 25 °C, pH 7.4, 5% DMSO",negligible affinity
same,level of IL-1β,IL-1β,significantly reduce
same,"equilibrium dissociation constant (KD), M^pro",[4],negligible affinity
same,Kd,[3],0.0933 µM
"O=C(/C=C/c1ccc(O[C@@H]2O[C@H](CO)[C@@H](O)[C@H](O)[C@H]2O)cc1)c1ccc(O)cc1O [ISO, isoliquiritin]",CC50 at 24 h,[1]; [6],> 100 µM
same,level of TNF-α,TNF-α,decrease
same,production of NO,NO,inhibited
same,level of IL-6,IL-6,significantly reduce
same,level of IL-1β,IL-1β,significantly reduce
"C[C@@H]1O[C@@H](O[C@H]2[C@H](Oc3cc(O)c4c(=O)cc(-c5ccc(O)cc5)oc4c3)O[C@H](CO)[C@@H](O)[C@@H]2O)[C@H](O)[C@H](O)[C@H]1O [RHO, rhoifolin]",CC50 at 24 h,[1],> 100 µM
same,level of TNF-α,TNF-α,decrease
same,IC50,"SARS-CoV-2 M^pro; FRET, 0.2 μM protein, 20 μM substrate, read-out: IC50 on M^pro",21.6 ± 8.78 µM
same,production of NO,NO,inhibited
same,level of IL-6,IL-6,significantly reduce
same,IC50,"SARS-CoV-2 PL^pro; FRET, 1 μM protein, 10 μM substrate, read-out: IC50 on PL^pro",> 100 µM
same,inhibition on PL^pro at 40 μM,SARS-CoV-2 PL^pro; FRET,poor inhibition
same,Kd,"[2]; SPR, CM5 chip, 25 °C, pH 7.4, 5% DMSO, read-out: equilibrium dissociation constant (KD), PL^pro",7.72 µM
same,level of IL-1β,IL-1β,significantly reduce
same,Kd,[3],7.07 µM
"Cn1cnc(Cn2c(=O)[nH]/c(=N\c3cc4cn(C)nc4cc3Cl)n(Cc3cc(F)c(F)cc3F)c2=O)n1 [S-217622, reference compound]",EC50,SARS-CoV-2 Omicron BA.5,0.088 µM
CC1(C)C2CCC1(C)C(O)C2 (stereo not shown) [borneol],Tmax,[5],20 to 25 min
O=C(O)C[C@@H]1C(=O)O[C@H]2[C@@H]3OC(=O)c4cc(O)c(O)c(O)c4-c4c(cc(O)c(O)c4O)C(=O)OC[C@H]2O[C@@H](OC(=O)c2cc(O)c(O)c(O)c2)[C@@H]3OC(=O)c2cc(O)c(O)c3c2[C@H]1[C@H](O)C(=O)O3 [chebulagic acid],virus-induced plaque formation,SARS-CoV-2,reduce
O=C(O[C@@H]1Cc2c(O)cc(O)cc2O[C@@H]1c1cc(O)c(O)c(O)c1)c1cc(O)c(O)c(O)c1 [epigallocatechin gallate],Kd,S^pro RBD,11.5 µM
CC(C)=CCc1c(O)ccc(C(=O)/C=C/c2ccc(O)cc2)c1O [isobavachalcone],Kd,S^pro RBD,5.7 µM
O=C(/C=C/c1ccc(O)c(O)c1)O[C@@H]1C[C@](O)(C(=O)O)C[C@@H](OC(=O)/C=C/c2ccc(O)c(O)c2)[C@H]1O [isochlorogenic acid A],Kd,S^pro RBD,18.3 µM
